For orientation: IC50 means the point on the concentration scale where inhibition reaches its midpoint. The low end stands for inhibition by little substance, the high end for a need for much substance.

The assay concerns the target Carbonic anhydrase 2 (Homo sapiens, UniProt P00918). The experiment in a line: Enzyme Inhibition Assay. The settings on record: pH 7.4; 25 °C. As to the method:
Saturated CO2 solutions in water at 25°C were used as substrate. Stock solutions of inhibitors were prepared at a concentration of 10 mM (in dimethyl sulphoxidewater 1:1, v/v) and dilutions up to 1 mM done with the assay buffer mentioned above. […] Inhibitor and enzyme solutions were preincubated together for 10 min at room temperature prior to assay, in order to allow for the formation of the E-I complex.

Turning to `Cn1c(=O)c2c(ncn2C)n(C)c1=O`, the IC50 is 2000 µM.

`O=C(/C=C/C=C/c1ccc2c(c1)OCO2)N1CCCCC1` [1-[(2E,4E)-5-(1,3-benzodioxol-5-yl)penta-2,4-dienoyl]piperidine] returned an IC50 of 2000 µM.

For the origin of these results see BindingDB's records for doi:10.3109/14756366.2011.578393 (Gitam University, 2012).
